According to patent US20140364500A1, “URSOLIC ACID SALTS FOR TREATING DIABETES AND OBESITY” (priority 2012, published 2014):

Assays:
[1] = Merck Index, 11th Edition, page 1556; cited from earlier work
[2] = Solubility determination in water by HPLC assay; type: physicochemical; details: filtered, filtrate assayed by HPLC
Description: The average AUC of the three runs was used to determine the concentration.
Agilent 1100 HPLC; Eclipse XDB-C18 50×4.6 mm 1.8 micron column; Gradient—5 min 95% water (0.10% TFA) to 95% acetonitrile (0.07% TFA); 1.5 mL/min; UV Detection @ 210 nm.

C[C@H]1[C@H](C)CC[C@]2(C(=O)O)CC[C@]3(C)C(=CC[C@@H]4[C@@]5(C)CC[C@H](O)C(C)(C)[C@@H]5CC[C@]43C)[C@H]12 [Ursolic acid]
solubility in water (literature citation) [1]: insoluble in water
detection by HPLC assay in filtrate of water saturated with the substance [2]: not detected
